From the NIST ThermoML archive (doi:10.1021/je301370s)

Assay: xn = mol fraction of the nth substance listed
Conditions: 101 kPa, Liquid, Taylor dispersion method, x1 = 0

| SMILES | binary diffusion coefficient (298.2 K) [m2/s] | binary diffusion coefficient (303.2 K) [m2/s] | binary diffusion coefficient (313.2 K) [m2/s] | binary diffusion coefficient (323.2 K) [m2/s] | binary diffusion coefficient (333.2 K) [m2/s] |
| --- | --- | --- | --- | --- | --- |
| NCCCC(=O)O [4-aminobutanoic acid] + O | 8.38e-10 | 9.54e-10 | 1.2e-09 | 1.49e-09 | 1.79e-09 |
| NCCC(=O)O [3-aminopropanoic acid] + O | 9.37e-10 | 1.06e-09 | 1.35e-09 | 1.64e-09 | 1.97e-09 |
| NCCCCCC(=O)O [6-aminohexanoic acid] + O | 7.28e-10 | 8.25e-10 | 1.05e-09 | 1.29e-09 | 1.57e-09 |
| NCCCCC(=O)O [5-aminovaleric acid] + O | 7.76e-10 | 8.73e-10 | 1.12e-09 | 1.39e-09 | 1.66e-09 |
| NCCCCCCC(=O)O [7-aminoheptanoic acid] + O | 6.88e-10 | 7.86e-10 | 1e-09 | 1.23e-09 | 1.48e-09 |
